Measurements from patent US12129223B2, “Lipids for use in lipid nanoparticle formulations” (Acuitas Therapeutics, Inc., priority 2021, dated 2024).

Assays:
[1] = test system: luciferase expression in the liver; assay: Luciferase mRNA in vivo evaluation using lipid nanoparticle compositions; set-up: species or system mice; details: LNP with FLuc mRNA, tail vein injection, ng luciferase/g liver 4 hours after administration
Outline: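 LNPs were made from cationic lipid/DSPC/cholesterol/PEG-lipid (50:10:38.5:1.5 or 47.5:10:40.7:1.8) with modified FLuc mRNA and given by tail-vein injection to mice at 1.0, 0.5 or 0.3 mg mRNA/kg. Liver luciferase was measured at 4 h by luminescence, normalized to protein and converted to ng luciferase/g liver by standard curve.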

human IgG in mouse serum = assay: Immunoglobulin G (IgG) mRNA in vivo evaluation using lipid nanoparticle compositions; set-up: species or system mice; details: LNP with IgG mRNA, tail vein injection, serum 24 hours after administration
Description: A lipid of structure (I), DSPC, cholesterol and PEG-lipid are solubilized in ethanol at a molar ratio of 50:10:38.5:1.5 or 47.5:10:40.7:1.8. Lipid nanoparticles (LNP) are prepared at a total lipid to mRNA weight ratio of approximately 10:1 to 40:1. Briefly, the mRNA is diluted to 0.2 mg/mL in 10 to 50 mM citrate buffer, pH 4 or 10 to 25 mM acetate buffer, pH 4. Syringe pumps are used to mix the ethanolic lipid solution with the mRNA aqueous solution at a ratio of about 1:5 to 1:3 (vol/vol) with total flow rates above 15 mL/min. The ethanol is then removed and the external buffer replaced with PBS by dialysis. Finally, the lipid nanoparticles are filtered through a 0.2 µm pore sterile filter.
Studies are performed in 6-8 week old CD-1/ICR mice (Envigo) according to guidelines established by an institutional animal care committee (ACC) and the Canadian Council on Animal Care (CCAC). Varying doses of mRNA-lipid nanoparticle are systemically administered by tail vein injection and animals euthanized at a specific time point (e.g., 24 hours) post-administration. The whole blood is collected, and the serum subsequentially separated by centrifuging the tubes of the whole blood at 2000×g for 10 minutes at 4° C. and stored at −80° C. until use for analysis.
For immunoglobulin G (IgG) ELISA (Life Diagnostics Human IgG ELISA kit), the serum samples are diluted at 100 to 15000 folds with 1×diluent solution. 100 μL of diluted serum is dispensed into anti-human IgG coated 96-well plate in duplicate alongside human IgG standards and incubated in a plate shaker at 150 rpm at 25° C. for 45 minutes. The wells are washed 5 times with 1× wash solution using a plate washer (400 μL/well). 100 μL of HRP conjugate is added into each well and incubated in a plate shaker at the same condition above. The wells are washed 5 times again with 1× wash solution using a plate washer (400 μL/well). 100 μL of TMB reagent is added into each well and incubated in a plate shaker at the same condition above. The reaction is stopped by adding 100 μL of Stop solution to each well. The absorbance is read at 450 nm (A450) with a microplate reader. The amount of human IgG in mouse serum is determined by plotting A450 values for the assay standard against human IgG concentration.
Representative compounds of the disclosure shown in Table 2 were formulated using the following molar ratio: 50% cationic lipid/10% distearoylphosphatidylcholine (DSPC)/38.5% Cholesterol/1.5% PEG lipid 2-[2-(ω-methoxy(polyethyleneglycol2000)ethoxy]-N,N-ditetradecyl acetamide) or 47.5% cationic lipid/10% DSPC/40.7% Cholesterol/1.8% PEG lipid. Relative activity was determined by measuring luciferase expression in the liver 4 hours following administration via tail vein injection as described in Example 1 or by measuring the amount of human IgG in mouse serum as described in example 2. The activity was compared at a dose of 1.0 or 0.5 or 0.3 mg mRNA/kg and expressed as ng luciferase/g liver measured 4 hours after administration, as described in Example 1 or as μg IgG/mL serum measured 24 hours after administration, as described in Example 2. Compound numbers in Table 2 refer to the compound numbers of Table 1.

[2] = Determination of pKa of formulated lipids (TNS fluorescence assay in lipid nanoparticles); type: physicochemical; details: lipid nanoparticles (compound/DSPC/cholesterol/PEG-lipid), lipid formulated in LNP (lipid/DSPC/cholesterol/PEG-lipid), pH at half-maximal intensity
Outline: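 LNPs (compound/DSPC/cholesterol/PEG-lipid, 50/10/38.5/1.5 or 47.5:10:40.7:1.8 mol %) diluted to 24 μM lipid in HEPES/MES/ammonium acetate/NaCl buffers, pH 2.5–11, with 1 μM TNS. Fluorescence read at room temperature, ex 321/em 445 nm. pKa taken as pH of half-maximal intensity from sigmoidal fit.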

pKa [2]: 6.24
Structure (SMILES): CCCCCCCCCCN(CCCCCCCCCC)C(=O)CCCCCCCN(CCCCCCO)CCCCCCCC(=O)N(CCCCCCCCCC)CCCCCCCCCC [Compound I-24, 8,8′-((6-hydroxyhexyl)azanediyl)bis(N,N-didecyloctanamide)]
Liver Luc @ 0.3 mg/kg ([1]; 0.3 mg mRNA/kg): 9106 ± 1760 ng/g
Liver Luc @ 1.0 mg/kg ([1]; 1.0 mg mRNA/kg): 38913 ± 14318 ng/g
Serum IgG @ 0.3 mg/kg (human IgG in mouse serum; 0.3 mg mRNA/kg): 27.46 ± 9.22 µg/mL
Serum IgG @ 1.0 mg/kg (human IgG in mouse serum; 1.0 mg mRNA/kg): 112.31 ± 14.51 µg/mL
